# Reference: patent US20220282271A1, “HERBICIDE RESISTANT PLANTS AND METHODS OF MAKING AND USING” (OFFICE OF INNOVATION ADVANCEMENT AND COMMERCIALIZATION, priority 2019, published 2022)
# Key:
# Type in all cases: in vivo
# Conditions in all cases: 1.0 lb ai/a, applied approximately 3 weeks after emergence, relative to non-treated
# Albizia julibrissin = experiment: Weed control screen: silktree
# Description: (§1) Herbicides were applied at a spray volume of 280 L/ha with no adjuvant added to any herbicide mixture. Weed control was rated on a 0 to 100 percent phytoxicity scale with 0 being no plant injury/phytotoxicity and 100 being complete plant dessication. Twenty-one weeds were evaluated for response to herbicides (Table 3). The weeds selected were a mixture of weeds common in agronomic and horticultural crops. Herbicide was applied to all species approximately 3 weeks after emergence. Plant phytotoxicity rated as percent control relative to the non-treated.
# Senna obtusifolia = experiment: Weed control screen: sicklepod
# Description: as §1
# Crotalaria spectabilis = experiment: Weed control screen: showy crotalaria
# Description: as §1
# Sesbania exaltata = experiment: Weed control screen: hemp sesbania
# Description: as §1
# Physalis angulata = experiment: Weed control screen: cutleaf groundcherry
# Description: as §1
# Murdannia nudiflora = experiment: Weed control screen: doveweed
# Description: as §1
# Ipomoea lacunosa = experiment: Weed control screen: pitted morningglory
# Description: as §1
# Sida spinosa = experiment: Weed control screen: prickly sida
# Description: as §1
# Cyperus iria = experiment: Weed control screen: rice flatsedge
# Description: as §1
# Ipomoea coccinea = experiment: Weed control screen: red morningglory
# Description: as §1
# Ipomoea quamoclit = experiment: Weed control screen: cypressvine morningglory
# Description: as §1
# Ipomoea hederacea = experiment: Weed control screen: entireleaf morningglory
# Description: as §1
# Jaquemontia tamnifolia = experiment: Weed control screen: smallflower morningglory
# Description: as §1
# Conyza candensis = experiment: Weed control screen: glyphosate-resistant horseweed
# Description: as §1
# Solanum carolinense = experiment: Weed control screen: Carolina horsenettle
# Description: as §1
# Kyllinga squamulata = experiment: Weed control screen: cock's comb kyllinga
# Description: as §1
# Sorghum halapense = experiment: Weed control screen: johnsongrass
# Description: as §1
# Eleusine indica = experiment: Weed control screen: goosegrass
# Description: as §1
# Abutilon theophrasti = experiment: Weed control screen: velvetleaf
# Description: as §1
# Amaranthus hybridus = experiment: Weed control screen: smooth pigweed
# Description: as §1
# Amaranthus palmeri = experiment: Weed control screen: glyphosate resistant palmer amaranth
# Description: as §1
SMILES,Percent control (0 to 100) (Albizia julibrissin) [%],Percent control (0 to 100) (Senna obtusifolia) [%],Percent control (0 to 100) (Crotalaria spectabilis) [%],Percent control (0 to 100) (Sesbania exaltata) [%],Percent control (0 to 100) (Physalis angulata) [%],Percent control (0 to 100) (Murdannia nudiflora) [%],Percent control (0 to 100) (Ipomoea lacunosa) [%],Percent control (0 to 100) (Sida spinosa) [%],Percent control (0 to 100) (Ipomoea coccinea) [%],Percent control (0 to 100) (Ipomoea hederacea) [%],Percent control (0 to 100) (Jaquemontia tamnifolia) [%],Percent control (0 to 100) (Conyza candensis) [%],Percent control (0 to 100) (Solanum carolinense) [%],Percent control (0 to 100) (Kyllinga squamulata) [%],Percent control (0 to 100) (Sorghum halapense) [%],Percent control (0 to 100) (Eleusine indica) [%],Percent control (0 to 100) (Abutilon theophrasti) [%],Percent control (0 to 100) (Amaranthus hybridus) [%],Percent control (0 to 100) (Amaranthus palmeri) [%],further results
"CP(=O)(O)CCC(N)C(=O)O (stereo not shown) [Glufosinate, glufosinate]",100,100,100,100,100,100,100,100,100,100,100,100,100,30,100,100,100,100,100,Percent control (0 to 100) (Cyperus iria): 60%; Percent control (0 to 100) (Ipomoea quamoclit): 100%
"O=C(O)CNCP(=O)(O)O [Glyphosate, glyphosate]",25,70,60,75,99,80,60,60,50,60,40,0,50,95,100,90,100,90,35,
